According to patent publication US20120172359A1 (NOVARTIS AG, priority 2010, published 2012):
Where a name gives a salt, the structure may show the parent alone.

These compounds were tested against Human BACE-1 (Homo sapiens, UniProt P56817) (assay: Test 1: Inhibition of Human BACE-1). Settings: Test 1; recombinant BACE-1 (extracellular domain), acetate buffer pH 4.5, 1 hour with test compound at room temperature, fluorescence-quenched peptide substrate; read-out: Bace IC50.
Format: biochemical

Human BACE-1, sequence (P56817 46-457 limits assumed): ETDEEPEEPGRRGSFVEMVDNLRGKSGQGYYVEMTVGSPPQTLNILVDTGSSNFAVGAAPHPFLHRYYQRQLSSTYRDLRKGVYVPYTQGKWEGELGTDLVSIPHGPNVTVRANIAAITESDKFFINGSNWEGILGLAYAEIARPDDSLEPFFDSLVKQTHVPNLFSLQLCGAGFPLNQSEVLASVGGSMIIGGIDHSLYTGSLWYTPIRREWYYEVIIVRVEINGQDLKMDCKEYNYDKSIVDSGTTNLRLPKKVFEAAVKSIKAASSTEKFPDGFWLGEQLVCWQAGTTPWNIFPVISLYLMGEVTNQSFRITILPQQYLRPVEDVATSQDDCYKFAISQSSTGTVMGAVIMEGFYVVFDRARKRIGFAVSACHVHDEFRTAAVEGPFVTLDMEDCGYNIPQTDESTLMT

SMILES | IC50
NC1=N[C@@](c2cc(NC(=O)c3ccc(Cl)cn3)ccc2F)(C(F)F)COC1 [Example 137, 5-Chloro-pyridine-2-carboxylic acid [3-((R)-5-amino-3-difluoromethyl-3,6-dihydro-2H-[1,4]oxazin-3-yl)-4-fluoro-phenyl]-amide hydrochloride] | 30 nM
NC1=N[C@@](c2cc(NC(=O)c3ccc(OC(F)F)cn3)ccc2F)(C(F)F)COC1 [Example 138, 5-Difluoromethoxy-pyridine-2-carboxylic acid [3-((R)-5-amino-3-difluoromethyl-3,6-dihydro-2H-[1,4]oxazin-3-yl)-4-fluoro-phenyl]-amide hydrochloride] | 42 nM
NC1=N[C@@](c2cc(NC(=O)c3ccc(OCF)cn3)ccc2F)(C(F)F)COC1 [Example 139, 5-Fluoromethoxy-pyridine-2-carboxylic acid [3-((R)-5-amino-3-difluoromethyl-3,6-dihydro-2H-[1,4]oxazin-3-yl)-4-fluoro-phenyl]-amide] | 75 nM
NC1=N[C@@](c2cc(NC(=O)c3ncc(Cl)cc3F)ccc2F)(C(F)F)COC1 [Example 140, 5-Chloro-3-fluoro-pyridine-2-carboxylic acid [3-((R)-5-amino-3-difluoromethyl-3,6-dihydro-2H-[1,4]oxazin-3-yl)-4-fluoro-phenyl]-amide] | 43 nM
NC1=N[C@@](c2cc(NC(=O)c3cnc(Cl)cn3)ccc2F)(C(F)F)COC1 [Example 141, 5-Chloro-pyrazine-2-carboxylic acid [3-((R)-5-amino-3-difluoromethyl-3,6-dihydro-2H-[1,4]oxazin-3-yl)-4-fluoro-phenyl]-amide] | 33 nM
Cc1cc(C(=O)Nc2ccc(F)c([C@]3(C(F)F)COCC(N)=N3)c2)n[nH]1 [Example 142, 5-Methyl-1H-pyrazole-3-carboxylic acid [3-((R)-5-amino-3-difluoromethyl-3,6-dihydro-2H-[1,4]oxazin-3-yl)-4-fluoro-phenyl]-amide hydrochloride] | 820 nM
Cc1ccc(C(=O)Nc2ccc(F)c([C@]3(C(F)F)COCC(N)=N3)c2)nc1 [Example 143, 5-Methyl-pyridine-2-carboxylic acid [3-((R)-5-amino-3-difluoromethyl-3,6-dihydro-2H-[1,4]oxazin-3-yl)-4-fluoro-phenyl]-amide hydrochloride] | 110 nM
NC1=N[C@@](c2cc(NC(=O)c3cnc(O)cn3)ccc2F)(C(F)F)COC1 [Example 145, 5-Hydroxy-pyrazine-2-carboxylic acid [3-((R)-5-amino-3-difluoromethyl-3,6-dihydro-2H-[1,4]oxazin-3-yl)-4-fluoro-phenyl]-amide hydrochloride] | 340 nM
COc1cnc(C(=O)Nc2ccc(F)c([C@]3(C(F)F)COCC(N)=N3)c2)cn1 [Example 146, 5-Methoxy-pyrazine-2-carboxylic acid [3-((R)-5-amino-3-difluoromethyl-3,6-dihydro-2H-[1,4]oxazin-3-yl)-4-fluoro-phenyl]-amide hydrochloride] | 100 nM
Cc1nc(C(=O)Nc2ccc(F)c([C@]3(C(F)F)COCC(N)=N3)c2)cs1 [Example 148, 2-Methyl-thiazole-4-carboxylic acid [3-((R)-5-amino-3-difluoromethyl-3,6-dihydro-2H-[1,4]oxazin-3-yl)-4-fluoro-phenyl]-amide hydrochloride] | 940 nM
Cc1cnc(C(=O)Nc2ccc(F)c([C@]3(C(F)F)COCC(N)=N3)c2)s1 [Example 149, 5-Methyl-thiazole-2-carboxylic acid [3-((R)-5-amino-3-difluoromethyl-3,6-dihydro-2H-[1,4]oxazin-3-yl)-4-fluoro-phenyl]-amide hydrochloride] | 700 nM
Cn1ccc(C(=O)Nc2ccc(F)c([C@]3(C(F)F)COCC(N)=N3)c2)n1 [Example 150, 1-Methyl-1H-pyrazole-3-carboxylic acid [3-((R)-5-amino-3-difluoromethyl-3,6-dihydro-2H-[1,4]oxazin-3-yl)-4-fluoro-phenyl]-amide hydrochloride] | 290 nM
Cn1cc([N+](=O)[O-])c(C(=O)Nc2ccc(F)c([C@]3(C(F)F)COCC(N)=N3)c2)n1 [Example 151, 1-Methyl-4-nitro-1H-pyrazole-3-carboxylic acid [3-((R)-5-amino-3-difluoromethyl-3,6-dihydro-2H-[1,4]oxazin-3-yl)-4-fluoro-phenyl]-amide hydrochloride] | 1200 nM
C[C@@]1(c2cc(NC(=O)c3ncc(Cl)cc3N)ccc2F)CO[C@@](C)(C(F)(F)F)C(N)=N1 [Example 153, 3-Amino-5-chloro-pyridine-2-carboxylic acid [3-((3R,6R)-5-amino-3,6-dimethyl-6-trifluoro-methyl-3,6-dihydro-2H-[1,4]oxazin-3-yl)-4-fluoro-phenyl]amide] | 8 nM
CC1(c2cc(NC(=O)c3ncc(C(F)(F)F)cc3Cl)ccc2F)N=C(N)COCC1(F)F (stereo not shown) [Example 154, 3-Chloro-5-trifluoromethyl-pyridine-2-carboxylic acid [3-(3-amino-6,6-difluoro-5-methyl-2,5,6,7-tetrahydro-[1,4]oxazepin-5-yl)-4-fluoro-phenyl]-amide] | 120 nM
COc1cc(Br)cnc1C(=O)Nc1ccc(F)c(C2(C)N=C(N)COCC2(F)F)c1 (stereo not shown) [Example 155, 5-Bromo-3-methoxy-pyridine-2-carboxylic acid [3-(3-amino-6,6-difluoro-5-methyl-2,5,6,7-tetrahydro-[1,4]oxazepin-5-yl)-4 fluoro-phenyl]-amide] | 180 nM

SMILES | IC50
CC1(c2cc(NC(=O)c3ccc(C#N)cn3)ccc2F)N=C(N)COCC1(F)F (stereo not shown) [Example 156, 5-Cyano-pyridine-2-carboxylic acid [3-(3-amino-6,6-difluoro-5 methyl-2,5,6,7-tetrahydro[1,4]oxazepin-5-yl)-4 fluoro-phenyl]-amide] | 34 nM
NC1=N[C@@](c2cc(NC(=O)c3cc4cncnc4[nH]3)ccc2F)(C(F)F)COC1 [Example 157, 7H-Pyrrolo[2,3-d]pyrimidine-6-carboxylic acid [3-((R)-5-amino-3-difluoromethyl-3,6-dihydro-2H-[1,4]oxazin-3-yl)-4-fluoro-phenyl]-amide] | 5200 nM
COCCOc1cnc(C(=O)Nc2ccc(F)c([C@]3(C(F)F)COCC(N)=N3)c2)c(N)n1 [Example 158, 3-Amino-5-(2-methoxy-ethoxy)-pyrazine-2-carboxylic acid [3-((R)-5-amino-3-difluoromethyl-3,6-dihydro-2H-[1,4]oxazin-3-yl)-4-fluoro-phenyl]amide] | 18 nM
CCc1ccc(C(=O)Nc2ccc(F)c([C@]3(C(F)F)COCC(N)=N3)c2)nc1 [Example 159] | 130 nM
NC1=N[C@@](c2cc(NC(=O)c3ncc(Cl)cc3N)ccc2F)(C(F)F)COC1 [Example 160, 3-Amino-5-chloro-pyridine-2-carboxylic acid [3-((R)-5-amino-3-difluoromethyl-3,6-dihydro-2H-[1,4]oxazin-3-yl)-4-fluoro-phenyl]-amide] | 12 nM
COc1cnc(C(=O)Nc2ccc(F)c([C@]3(C(F)F)COCC(N)=N3)c2)c(Cl)c1 [Example 161, 3-Chloro-5-methoxy-pyridine-2-carboxylic acid [3-((R)-5-amino-3-difluoromethyl-3,6-dihydro-2H-[1,4]oxazin-3-yl)-4-fluoro-phenyl]-amide] | 66 nM
NC1=N[C@@](c2cc(NC(=O)c3ccc(=O)[nH]c3)ccc2F)(C(F)F)COC1 [Example 162, 6-Oxo-1,6-dihydro-pyridine-3-carboxylic acid [3-((R)-5-amino-3-difluoromethyl-3,6-dihydro-2H-[1,4]oxazin-3-yl)-4-fluoro-phenyl]-amide] | 8500 nM
NC1=N[C@@](c2cc(NC(=O)c3cc4cccn4cn3)ccc2F)(C(F)F)COC1 [Example 163, Pyrrolo[1,2-c]pyrimidine-3-carboxylic acid [3-((R)-5-amino-3-difluoromethyl-3,6-dihydro-2H-[1,4]oxazin-3-yl)-4-fluoro-phenyl]-amide] | 680 nM
NC1=N[C@@](c2cc(NC(=O)c3ncc(Br)cc3N)ccc2F)(C(F)F)COC1 [Example 165, 3-Amino-5-bromo-pyridine-2-carboxylic acid [3-((R)-5-amino-3-difluoromethyl-3,6-dihydro-2H-[1,4]oxazin-3-yl)-4-fluoro-phenyl]-amide] | 8 nM
CCn1ccnc1C(=O)Nc1ccc(F)c([C@]2(C(F)F)COCC(N)=N2)c1 [Example 166, 1-Ethyl-1H-imidazole-2-carboxylic acid [3-((R)-5-amino-3-difluoromethyl-3,6-dihydro-2H-[1,4]oxazin-3-yl)-4-fluoro-phenyl]amide] | 1200 nM
C#CCOc1cnc(C(=O)Nc2ccc(F)c([C@]3(C(F)F)COCC(N)=N3)c2)cn1 [Example 167, 5-Prop-2-ynyloxy-pyrazine-2-carboxylic acid [3-((R)-5-amino-3-difluoromethyl-3,6-dihydro-2H-[1,4]oxazin-3-yl)-4-fluoro-phenyl]-amide] | 3 nM
Cc1nc(C(=O)Nc2ccc(F)c([C@]3(C(F)F)COCC(N)=N3)c2)c(N)o1 [Example 168, 5-Amino-2-methyl-oxazole-4-carboxylic acid [3-((R)-5-amino-3-difluoromethyl-3,6-dihydro-2H-[1,4]oxazin-3-yl)-4-fluoro-phenyl]-amide] | 260 nM
NC1=N[C@@](c2cc(NC(=O)c3ncc(Cl)cc3O)ccc2F)(C(F)F)COC1 [Example 169, 5-Chloro-3-hydroxy-pyridine-2-carboxylic acid [3-((R)-5-amino-3-difluoromethyl-3,6-dihydro-2H-[1,4]oxazin-3-yl)-4-fluoro-phenyl]-amide] | 12 nM
CC(C)Oc1cnc(C(=O)Nc2ccc(F)c([C@]3(C(F)F)COCC(N)=N3)c2)cn1 [Example 170, 5-Isopropoxy-pyrazine-2-carboxylic acid [3-((R)-5-amino-3-difluoromethyl-3,6-dihydro-2H-[1,4]oxazin-3-yl)-4-fluoro-phenyl]-amide] | 340 nM
CCOc1cnc(C(=O)Nc2ccc(F)c([C@]3(C(F)F)COCC(N)=N3)c2)cn1 [Example 171, 5-Ethoxy-pyrazine-2-carboxylic acid [3-((R)-5-amino-3-difluoromethyl-3,6-dihydro-2H-[1,4]oxazin-3-yl)-4-fluoro-phenyl]amide] | 49 nM
